pIC50: −log10 of the molar value.
molecular target: DNA gyrase (Escherichia coli, UniProt P0AES4+P0AES6); assay: Inhibition of Escherichia coli DNA gyrase supercoiling using relaxed pNO1 as substrate measured after 30 mins by SybrGOLD staining based fluorescence analysis; assay type: protein-complex assay

Row | pIC50 | Compound
1 | 7.37 | Cc1[nH]c(C(=O)N(Cc2ccccc2)c2nc3ccc(NC(=O)C(=O)O)cc3s2)c(Cl)c1Cl
2 | 4.05 | CC(=O)Nc1ccc2nc(N(Cc3ccccc3)C(=O)c3[nH]c(C)c(Cl)c3Cl)sc2c1
3 | 4.46 | CC(=O)Nc1ccc2nc(N(Cc3ccc(C(=O)O)cc3)C(=O)c3[nH]c(C)c(Cl)c3Cl)sc2c1
4 | 4.27 | CC(=O)Nc1ccc2nc(N(Cc3cccc(C(=O)O)c3)C(=O)c3[nH]c(C)c(Cl)c3Cl)sc2c1
5 | 3.79 | CC(=O)Nc1ccc2nc(N(CCc3ccccc3)C(=O)c3[nH]c(C)c(Cl)c3Cl)sc2c1
6 | 5.66 | Cc1[nH]c(C(=O)N(CCc2ccccc2)c2nc3ccc(NC(=O)C(=O)O)cc3s2)c(Cl)c1Cl

The next lines start with the compound.

Row | Compound | pIC50
7 | CC(=O)Nc1ccc2c(c1)s/c(=N\C(=O)c1[nH]c(C)c(Cl)c1Cl)n2CCc1ccccc1 | 6.21
8 | CC(=O)Nc1ccc2c(c1)s/c(=N\C(=O)c1[nH]c(C)c(Cl)c1Cl)n2Cc1ccc(C(=O)O)cc1 | 6.22
9 | CC(=O)Nc1ccc2c(c1)s/c(=N\C(=O)c1[nH]c(C)c(Cl)c1Cl)n2Cc1cccc(C(=O)O)c1 | 7.00
10 | Cc1[nH]c(C(=O)/N=c2\sc3cc(NC(=O)C(=O)O)ccc3n2Cc2ccc(C(=O)O)cc2)c(Cl)c1Cl | 6.49
11 | CC(=O)Nc1ccc2c(c1)s/c(=N\C(=O)c1[nH]c(C)c(Cl)c1Cl)n2Cc1ccccc1 | 5.24
12 | Cc1[nH]c(C(=O)N(Cc2ccc(C(=O)O)cc2)c2nc3ccc(NC(=O)C(=O)O)cc3s2)c(Cl)c1Cl | 6.00
13 | Cc1[nH]c(C(=O)N(Cc2cccc(C(=O)O)c2)c2nc3ccc(NC(=O)C(=O)O)cc3s2)c(Cl)c1Cl | 5.55
14 | Cc1[nH]c(C(=O)/N=c2\sc3cc(NC(=O)C(=O)O)ccc3n2Cc2ccccc2)c(Cl)c1Cl | 7.74
15 | Cc1[nH]c(C(=O)/N=c2\sc3cc(NC(=O)C(=O)O)ccc3n2CCc2ccccc2)c(Cl)c1Cl | 7.00
16 | Cc1[nH]c(C(=O)/N=c2\sc3cc(NC(=O)C(=O)O)ccc3n2Cc2cccc(C(=O)O)c2)c(Cl)c1Cl | 7.89

Source: ChEMBL document CHEMBL5550182, “Exploring the interaction of N-(benzothiazol-2-yl)pyrrolamide DNA gyrase inhibitors with the GyrB ATP-binding site lipophilic floor: A medicinal chemistry and QTAIM study” (Bioorg Med Chem, 2024)
